Experimental data taken from patent publication US20140348966A1, “GARCINIA BUCHANANII BAKER COMPOUNDS, COMPOSITIONS AND RELATED METHODS” (priority 2011, published 2014).
Where a name gives a salt, the structure may show the parent alone.

Key:
[1] = hydrogen peroxide scavenging assay; type: biochemical; settings: isolated and reference compounds; read-out: H2O2 assay EC50
Method: Hydrogen peroxide scavenging assay was performed in accordance with the method of Ichikawa, M. and colleagues (2002). Sample solutions at appropriate concentration were prepared using phosphate buffer (100 mM, pH 6.0). Sample solution ([…]), phosphate buffer (30 mL, 100 mM, pH 6.0), and hydrogen peroxide solution (10 mL, 500 mM) were mixed in 96-well clear microplate (VWR, Ismaning, Germany). Then peroxidase (40 mL, 150 U/mL) and ABTS (40 mL, 0.1%) were added. The microplate was incubated at 37° C. for 15 min. The absorbance (A) of each well was measured at 414 nm with FLUOstar OPTIMA (BMG LABTECH, Offenburg, Germany). […] After freeze-drying three times 1 MPLC fractions M1-M8 were analyzed in natural concentrations.
E=[(A−Ablank)control−(A−Ablank)test]/(A−Ablank)control·100

[2] = oxygen radical absorbance capacity (ORAC) assay; type: biochemical; settings: isolated and reference compounds
Method: ORAC assay was carried out according to the method of Ou, G. and colleagues (1993) with some modifications. Trolox and FL were used as a standard and a fluorescent probe respectively. Free radicals were produced by AAPH to oxidize FL. Different dilutions of Trolox ([…]) and appropriate dilutions of tested sample were prepared with phosphate buffer (10 mM, pH 7.4). Trolox dilution ([…]) or sample solution were pipetted into a well of 96-well black microplate (VWR) and then FL (150 mL, 10 nM) was added. The reaction mixture was incubated at 37° C. for 30 min Afterward s, fluorescence was measured every 90 sec at the excitation of 485 nm and the emission of 520 nm using FLUOstar OPTIMA. After 3 cycles, AAPH ([…], 240 mM) was added quickly, and then the measurement was resumed and continued up to 90 min (60 cycles in total). The background signal was determined using the first 3 cycles. The ORAC values were calculated according to the method of Ou, G. and colleagues (1993) and expressed as Trolox equivalent (mmol TE/mmol). After freeze-drying in triplicate, MPLC fractions M1-M8 were analyzed in natural concentrations.

[3] = tested on: guinea pig gallbladder smooth muscle cells (GBSM); experiment: intracellular microelectrode recording of action potentials, gallbladder smooth muscle; settings: extract 0.5 g stem bark powder/100 ml; manniflavanone 41.0 mg/100 mL Krebs
Method: (§1) Calcium imaging and standard intracellular microelectrode recording were used to determine the effect of G. buchananii extract on the discharge and frequency of Ca^2+ transients, Ca^2+ flashes and Ca^2+ waves. Six fractions (M1-M5 and M7) collected using medium pressure liquid chromatography and manniflavanone, a pure compound from M3 were analyzed for the effect on the resting membrane potential and action potentials in intact GBSM preparations, and slow wave action potentials in CSMC in guinea pig and porcine colon.

[4] = tested on: guinea pig colon circular smooth muscle cells (CSMC); experiment: intracellular recording of slow wave action potentials, colon circular smooth muscle; settings: extract 0.5 g stem bark powder/100 ml Krebs; manniflavanone 41.0 mg/100 mL Krebs
Method: as §1

[5] = tested on: S-neurons in the myenteric ganglia of guinea pig distal colon; experiment: intracellular recording of evoked fast excitatory postsynaptic potentials (fEPSPs); settings: naloxone 10 μmol/L; yohimbine 1 μmol/L
Method: Intracellular Recording: To study fast excitatory postsynaptic potentials, longitudinal muscle-myenteric plexus preparations of guinea pig colon were pinned and stretched in a 2.5 mL Sylgard-lined recording chamber. […] Myenteric ganglia were visualized at ×200 using Hoffman modulation contrast optics on an inverted microscope (Nikon Diaphot, […]., USA). Individual neurons were randomly impaled using glass microelectrodes, which were filled to the shoulder with 1.0 mol L^-1 KCl and topped off with 2.0 mol L^-1 KCl, generating a range of 50-150 MΩ input resistance. Membrane potential was measured with an Axoclamp-2A amplifier (Axon Instruments, Union City, Calif., USA) and the electrical signals were acquired and analyzed using PowerLab Chart version 5.01 (ADlnstruments, Castle Hills, Australia). Input resistance and resting membrane potential were determined for neurons before and after exposure to G. buchananii extract. Using monopolar extracellular electrodes made from Teflon®-insulated platinum wire, synaptic input to myenteric neurons was elicited by direct single pulse stimuli (0.5 ms duration) applied to interganglionic fiber tracts. […] The amplitude was measured by taking the difference in voltage between the peak of each fEPSP and the membrane holding potential. […]

| EC50 [1] | Compound | ORAC assay [2] | action potentials in GBSM [3] | slow wave action potentials (SW) in CSMC [4] | effect of antagonist alone on fEPSPs [5] |
| --- | --- | --- | --- | --- | --- |
| 2800 nM | O=C1c2c(O)cc(O)c([C@@H]3C(=O)c4c(O)cc(O)cc4O[C@H]3c3ccc(O)c(O)c3)c2O[C@H](c2ccc(O)c(O)c2)[C@H]1O [Compound 3, (2R,3S,2″R,3″R)-manniflavanone] | 13.73 μmol TE/μmol | inhibits action potentials | inhibits spikes of SW | – |
| – | C=CCN1CC[C@]23c4c5ccc(O)c4O[C@H]2C(=O)CC[C@@]3(O)[C@H]1C5 [naloxone, naloxone hydrochloride] | – | – | – | had no effect on fEPSPs |
| – | COC(=O)[C@@H]1[C@H]2C[C@H]3c4[nH]c5ccccc5c4CCN3C[C@@H]2CC[C@@H]1O [yohimbine, yohimbine hydrochloride] | – | – | – | had no effect on fEPSPs |
